Assay results published in patent US20230330134A1, “METHOD OF PROPHYLAXIS OF CORONAVIRUS AND/OR RESPIRATORY SYNCYTIAL VIRUS INFECTION” (Starpharma Pty Ltd., priority 2020, published 2023).
“And” between values parts separate entries of the source, which are not always exact repeats. Equal entries are not always repeated. Where two headings read alike, the source gives them in different places.

Tests used:
SARS-CoV-2 = format: cell-based; conditions: 25 mg/mL incubated with 10^5 TCID50/mL virus, 37° C., 60 minutes; titrated on Vero cells
[1] = rats
MRC-5 cells = conditions: no virus
[2] = tested on: Coronavirus strain 229E (ATCC #VR-740); conditions: final 28.76 mg/mL; for CPE in four replicates, Test: MRC-5
HCT-8 cells = conditions: no virus
[3] = tested on: SARS-CoV-2 hCoV-19/Australia/VIC01/2020; test: microbe, parasite or virus in culture; format: cell-based
[4] = tested on: SARS-CoV-1 (Urbani) Spike-pseudotyped GFP reporter lentiviral particles; format: cell-based
Hep-2 cells = test: Product cytotoxicity (TC50), CCK-8 assay; format: cell-based
[5] = tested on: Coronavirus strain OC43 (ZeptoMetrix Corp. #0810024CF); conditions: final 28.76 mg/mL; for CPE in four replicates, Test: HCT-8
Vero cells = conditions: no virus
[6] = tested on: SARS-CoV-2 (hCoV-19/Australia/VIC01/2020); format: cell-based; conditions: 0.345 mg/mL added 0 min to 6 h post-infection; Vero E6; MOI 1; all time points
[7] = tested on: SARS-CoV-2 (2019-nCoV/USA-WAl/2020 strain); format: in vivo, human ACE2 transgenic mice K18-hACE2; conditions: 1%, 3% or 5% SPL7013 in PBS intranasally for 7 days (0.5, 1.5, 2.5 mg daily); significant vs control at the highest dose
Calu-3 cells = conditions: Day 4
[8] = tested on: SARS-CoV-2 (Wuhan-Hu-1) Spike-pseudotyped GFP reporter lentiviral particles; format: cell-based; conditions: 10 and 30 mg/mL, added 1 hour prior
[9] = 60 seconds exposure, dilution (-Log10) -6
[10] = 60 seconds exposure, dilution (-Log10) -7
[11] = 60 minutes exposure, dilution (-Log10) -7

## astodrimer sodium [SPL7013]
SARS-CoV-2
  viricidal activity: stopped all virus growth
[1]; 1% group, one 3 hr sample (called an aberration)
  SPL7013 in pooled plasma sample: 0.635 µg/mL
[1]; 1% or 3% Nasal Spray 4 times daily for 7 days, Day 1 and Day 7, pre-dose to 6 hr, all samples but one
  SPL7013 in pooled plasma samples (LLOQ): < 0.5 µg/mL
MRC-5 cells
  TCID50 (log10), CTC (Cytotoxicity Control): 1.50 log10
MRC-5 cells; dilution (-Log10) -2
  CPE in four replicates, CTC (Cytotoxicity Control): 0000
MRC-5 cells; dilution (-Log10) -3
  CPE in four replicates, CTC (Cytotoxicity Control): 0000
MRC-5 cells; dilution (-Log10) -4
  CPE in four replicates, CTC (Cytotoxicity Control): 0000
[2]; [9]
  CPE in four replicates, Test: 0000
[2]; [10]
  CPE in four replicates, Test: 0000
[2]; 60 seconds exposure
  Log10 Reduction: 0.75 log10
  Percent Reduction: 82.22%
  TCID50 (log10), Test: 5.50 log10
[2]; 60 minutes exposure, dilution (-Log10) -5
  CPE in four replicates, Test: +0+0
[2]; [11]
  CPE in four replicates, Test: 0000
[2]; 60 minutes exposure
  Log10 Reduction: 0.75 log10
  Percent Reduction: 82.22%
  TCID50 (log10), Test: 5.25 log10
HCT-8 cells
  TCID50 (log10), CTC (Cytotoxicity Control): 1.50 log10
HCT-8 cells; dilution (-Log10) -2
  CPE in four replicates, CTC (Cytotoxicity Control): 0000
HCT-8 cells; dilution (-Log10) -3
  CPE in four replicates, CTC (Cytotoxicity Control): 0000
HCT-8 cells; dilution (-Log10) -4
  CPE in four replicates, CTC (Cytotoxicity Control): 0000
[3]; added 1 hour post-infection, Vero cells, MOI 0.05, CPE by MTT after 4 days
  EC50: 0.40 mg/mL
[3]; added 1 hour pre-infection, Vero cells, MOI 0.05, CPE by MTT after 4 days
  EC50: 0.42 mg/mL
[3]; pre- and post-infection assays, read-out: EC50
  EC50: 25 µM and 24 µM
[4]
  binding/infection of Vero E6 cells by spike-pseudotyped lentivirus (GFP-positive cells, FACS): potently inhibited
Hep-2 cells; Post Treatment
  TC50, Best Fit Value: 30.90 mg/mL
Hep-2 cells; PreTreatment
  TC50, Best Fit Value: 35.64 mg/mL
[5]; [9]
  CPE in four replicates, Test: 0000
[5]; [10]
  CPE in four replicates, Test: 0000
[5]; 60 seconds exposure
  Log10 Reduction: 0.50 log10
  TCID50 (log10), Test: 5.50 log10
[5]; 60 seconds exposure, listed as SPL7013 aqueous solution
  Percent Reduction: 68.38%
[5]; 60 minutes exposure, dilution (-Log10) -6
  CPE in four replicates, Test: +000
[5]; [11]
  CPE in four replicates, Test: 0000
[5]; 60 minutes exposure
  Log10 Reduction: 0.50 log10
  Percent Reduction: 68.38%
  TCID50 (log10), Test: 5.25 log10
Vero E6 cells
  cytotoxicity: not observed
Vero cells
  TCID50 (log10), CTC (Cytotoxicity Control): 1.50 log10
Vero cells; dilution (-Log10) -2
  CPE in four replicates, CTC (Cytotoxicity Control): 0000
Vero cells; dilution (-Log10) -3
  CPE in four replicates, CTC (Cytotoxicity Control): 0000
Vero cells; dilution (-Log10) -4
  CPE in four replicates, CTC (Cytotoxicity Control): 0000
[6]
  infectious virus titer in supernatant (TCID50) at 8 hours post-infection: below the lower limit of detection
[7]
  viral copies (qPCR) in nasal swabs at Day 7: dose dependent decrease
Calu-3 cells
  CC50: 21.76 mg/mL
[8]
  binding/infection of Vero E6 cells by spike-pseudotyped lentivirus (GFP-positive cells, FACS): potently inhibited
